Tested on: PMN
Test: Intravital time lapse videomicroscopy of PAF-stimulated PMN locomotion in rat mesenteric tissue in vivo
Conditions: rat mesentery, PAF 10^-7 M
Experimental: Intravital time lapse videomicroscopy of PMN locomotion in vivo. PMN locomotion in rat mesenteric tissue was studied through use of intravital time lapse videomicroscopy according to the protocol previously described in detail (Werr et al., supra). In brief, Wistar rats (200-250 g) were anesthetized with equal parts of fluanison/fentanyl (10/0.2 mg/ml; Hypnorm; Janssen-Cilag Ltd., Saunderton, UK) and midazolam (5 mg/ml; Dormicum; Hoffman-La Roche, Basel, Switzerland) diluted 1:1 with sterile water (2 ml/kg i.m.). Body temperature was maintained at 37° C by a heating pad connected to a rectal thermistor. After laparotomy, a segment of the ileum was exposed on a heated transparent pedestal to allow microscopic observation of the mesenteric microvasculature (Orthoplan microscope equipped with water immersion lens SW×25, NA 0.60; Leitz, Wetzlar, Germany). The microscopic image was televised and recorded on time lapse video (at 1/7 of normal speed). Analysis of leukocyte migration in the mesenteric tissue was made off line and the migration path of individual leukocytes was tracked with a digital image analyzer. […]

ACRGDGWMCG
effect on PMN migration at ten-fold higher concentrations (ten-fold higher concentrations than 500 µM, some experiments): did not yield different effects | effect on PMN migration (topical administration, peptide 500 µM): without effect
